# No end group written: not given here.
# Assays:
# [1] = test system: type I, II and III cell receptors of TGFβ1; test: Affinity labelling: inhibition of binding of 125I-TGFβ1 to its cell receptors on MV-1-Lu cells; parameters: species or system human
# Method: The MV-1-Lu cells were removed from the culture flasks incubating them at 37° C. for 10 minutes, with 10 ml of solution 1 (128 mM NaCl, 5 mM KCl, 25 mM 4-(2-hydroxyethyl)-1-piperazine ethanesulphonate at pH 7.5, 5 mM glucose and 1 mM EDTA). The cells thus removed were resuspended in solution 2 (128 Mm NaCl, 5 mM KCl, 50 mM 4-(2-hydroxyethyl)-1-piperazine ethanesulphonate at pH 7.5, 1.2 mM CaCl2, 1.2 mM MgSO4 and 5 mg/ml BSA) and were collected by centrifugation at 1000×g for 5 minutes. After centrifugation the cells were resuspended in solution 2 at a concentration of 10^6 cells/ml.
# From this cell suspension, 0.5 ml aliquots were made in 24-well plates (Greiner GmbH, Frickenhausen, Germany), the peptides were added, in 50 μl of a 0.8 mg/ml solution, then this was incubated for 2 hours at 4° C. with stirring. Next, ^125I-TGFβ1 (2 μCi) was added to a final concentration of 277.2 pM (^125I-TGFβ1 human recombinant 800-2200 Ci/mmol, Amersham Life Science, Buckinghamshire, UK) and this was incubated for a further two hours at 4° C. with stirring.
# After incubation, the cells were transferred to a centrifuge tube and were centrifuged cold at 12,000×g for 1 minute. […]
# [2] = test system: experimental cirrhosis with CCl4; test: Model of experimental cirrhosis induced with CCl4 in Wistar rats (collagen / fibrosis); assay type: in vivo, rat
# Method: Male white rats (albino Wistar strain) from simultaneous litters (5 weeks±1.5 weeks) were used, in order to obtain a group that was homogeneous in age and initial weight. Throughout the experiments, the animals were kept in conditions of constant temperature (22° C.) with a 12-hour cycle of light and darkness. They had free access to water and food.
# Hepatic cirrhosis (HC) was induced by inhalation of carbon tetrachloride for 11 weeks, twice per week (López Novoa J M et al. (1976) Patologia IX:223-240; Camps J. et al. (1987) Gastroenterology 93:498-505). Exposure to CCl4 was effected by bubbling compressed air, at a flow rate of 3 liters/min, through a gas wash-bottle. […] CCl4 was not administered during the fifth week, starting again at the sixth week with an exposure of 5 minutes. This exposure time was maintained until week 11. 400 mg/l of phenobarbital (Luminal®, Bayer, Leverkusen, Germany) was added to the drinking water, from one week before starting exposure to CCl4 and until the end of the experimental period. Before starting the treatment, one week was left, in which they were not administered CCl4. During treatment they were administered a weekly dose of CCl4, as recorded (FIG. 2).
# The animals were divided into 4 groups before beginning the process of induction of hepatic cirrhosis. • Healthy controls (Co): Animals that were not subjected to the fibrosis process. • Treated healthy controls (Co+P144): Animals that were not subjected to the fibrosis process and that were administered the peptide P144 during the last 3 weeks (coinciding in time with the treatment of the group of rats Tto2). • Cirrhotic controls 1 (Ci1): Animals subjected to the process of induction of cirrhosis by inhalation of CCl4 twice per week. These animals were separated into 2 groups on reaching the fifth week: • Cirrhotic controls 1 (Ci1): Animals that continued to be subjected to the process of induction of fibrosis up to week 11, without being administered the peptide P144. They were administered saline serum on alternate days, throughout the induction process (weeks 5 to 11). • Treated cirrhotics 1 (Tto1): Animals that were administered the peptide P144 derived from the sequence of the type III receptor, on alternate days, during the process of induction of fibrosis, from week 5 to week 11. • Cirrhotic controls 2 (Ci2): Animals that continued to be subjected to the process of induction of fibrosis without receiving the peptide P144 or saline serum. This group was subdivided into another two on reaching week 11. • Cirrhotic controls 2 (Ci2): Cirrhotic animals that were not subjected to any type of treatment, kept as controls. […]
sequence,measurement,setting,value
"TSLDASIIWAMMQN [P144, ThrSerLeuAspAlaSerIleIleTrpAlaMetMetGlnAsn]",inhibition of the binding of 125I-TGFβ1 to the cell receptors,[1]; preincubation with peptide at 10^6 times the molar concentration of 125I-TGFβ1,inhibition of the binding
same,concentration at which the peptide lost its activity,"[1]; titration of the peptide, affinity labelling",2×10^5 times the molar concentration of ^125I-TGFβ1
same,"ratio of collagen to total protein, treated (Tto1) vs cirrhotic controls (Ci1)","[2]; protocol 1: 70 μg/animal on alternate days during cirrhosis induction, Fast Green/Direct Red, spectrophotometer",significant differences are observed (P<0.05)
same,"area of fibrosis, treated (Tto1) vs cirrhotic controls (Ci1)","[2]; protocol 1: 70 μg/animal on alternate days during cirrhosis induction, image analysis, Sirius Red",also significant (P<0.001)
same,"ratio of collagen to total protein, treated (Tto2) vs cirrhotic controls (Ci2)",[2]; protocol 2: 70 μg/animal on alternate days for 3 weeks once cirrhosis was established,not significant
same,"area of fibrosis, treated (Tto2) vs cirrhotic controls (Ci2)","[2]; protocol 2: 70 μg/animal on alternate days for 3 weeks once cirrhosis was established, image analysis",not significant
